Test results reported in US11541057B2, “Thienopyrimidinone NMDA receptor modulators and uses thereof” (Cadent Therapeutics, Inc., priority 2015, dated 2023).

Molecular target: T1, NMDA receptor GRIN1/GRIN2B (NR2B) expressed in HEK293 cells (Homo sapiens, UniProt Q13224)
T1 construct: host or cells: HEK293
Assay: Reversal of Ro 25-6981-mediated suppression of the Ca2+ response (fluo-8 fluorescence, FDSS) in HEK293 cells expressing GRIN1 and GRIN2B
Format: cell-based
Details: % reversal=100*(R−Rneg)/(Rpos−Rneg) of Ro 25-6981 suppression of co-agonist (glutamate/glycine) Ca2+ response, 10 min pre-incubation, compound concentration not given
Experimental: HEK293 cells with constructs conferring stable expression of the GRIN1 gene and tetracycline-inducible expression of the GRIN2B gene (Chantest, Cleveland, Ohio) are grown to ˜75% confluence in tissue culture flasks at 37° C., 5% CO2. NR2B expression is induced by overnight incubation with 0.3-0.4 μg/ml tetracycline in the presence of 2.5 mM ARL-15896 at 37° C., followed by moving to 30° C. for 3-5 hours. Cells are next harvested using TripleExpress™ (Life Technologies, Carlsbad, Calif.) according to the manufacturer's instructions, first removing culture medium, rinsing with Dulbecco's phosphate buffered saline (Ca^2+ and Mg^2+-free), and then adding the TripleExpress™ reagent. Harvested cells are spun down, washed twice in Ca^2+- and Mg^2+-free Hank's Balanced Salt Solution with 20 mM HEPES and 10 mM glucose, pH 7.4 (HHnoCa solution), and counted with viability assessed using Trypan Blue. Cells are loaded with fluo-8 Ca^2+-sensitive dye in HHnoCa solution according to the manufacturer's directions (AAT Bioquest, Sunnyvale, Calif.), incubating at 37° C. for 20 minutes followed by 25 minutes at 22-25° C. After a wash in HHnoCa to remove extracellular dye, cells are resuspended in HHnoCa and plated at […] cells per well in a volume of 25 μl/well in 384 well black-wall, clear bottom plates (Hamamatsu, Middlesex, N.J.). Plates are then centrifuged to create a monolayer in the wells and stored in the dark until used.
Prior to analysis, compound plates are prepared with each compound at 6× the final desired concentration. From stock solutions at 10 mM in 100% DMSO, compounds are spotted in the desired amounts using an ECHO liquid handler (Labcyte, Sunnyvale, Calif.) into wells of a 384-well plate and then diluted with 50 μl of HHnoCa containing 750 nM Ro 25-6981 and 120 μM 5,7-dichlorokynurenic acid (both purchased from Tocris Bioscience (Bristol, England) and maintained as 10 mM stock solutions in 100% DMSO). To insure complete compound dissolution, these plates are then placed in an orbital shaker for at least one hour. Also prepared prior to the assay is a co-agonist plate containing HHnoCa with 240 μM glutamate, 2.4 mM glycine, and 7.2 mM CaCl2, which is 2.4× the desired final concentration of each reagent. Both the compound plate and co-agonist plate are 384-well polypropylene plates from Thermo Fisher Scientific, Waltham, Mass.
The assay is performed by first adding 10 μl solution from each well of the compound plate described above to the cell plate using a CyBiWell liquid handler (Analytik Jena AG, Jena, Germany), followed by 10 minutes pre-incubation in the dark. Cell plates are then loaded onto a Hamamatsu FDSS 6000 plate reader. After a 30-second baseline, 25 μl is added to each well from the co-agonist plate, and the fluorescence signal is recorded for another 2 minutes. FDSS software applies shading and autofluorescence correction, and resultant raw fluorescence measurements are exported in the form of a fluorescence ratio for each well to its own reading at time zero in the experiment. In each plate, negative control wells consist of wells where Ro 25-6981 and 5,7 dichlorokynurenic acid are present and co-agonist is applied in the absence of any added assay compound. Under these conditions, the Ca^2+ response to co-agonist is suppressed. Positive control wells also present in each plate contain 5,7 dichlorokynurenic acid but no Ro 25-6981, so that co-agonist addition results in a large Ca^2+ response. Compounds tested are evaluated on the basis of their ability to reverse the suppression of the Ca^2+ response mediated by Ro 25-6981, which is quantified as % reversal=100*(R−Rneg)/(Rpos−Rneg) where R is the fluorescence ratio for the test compound at the end of the experiment and Rneg and Rpos are the end ratios for the negative and positive controls, respectively. […]

T1 sequence (Q13224 27-1484, other chains not shown): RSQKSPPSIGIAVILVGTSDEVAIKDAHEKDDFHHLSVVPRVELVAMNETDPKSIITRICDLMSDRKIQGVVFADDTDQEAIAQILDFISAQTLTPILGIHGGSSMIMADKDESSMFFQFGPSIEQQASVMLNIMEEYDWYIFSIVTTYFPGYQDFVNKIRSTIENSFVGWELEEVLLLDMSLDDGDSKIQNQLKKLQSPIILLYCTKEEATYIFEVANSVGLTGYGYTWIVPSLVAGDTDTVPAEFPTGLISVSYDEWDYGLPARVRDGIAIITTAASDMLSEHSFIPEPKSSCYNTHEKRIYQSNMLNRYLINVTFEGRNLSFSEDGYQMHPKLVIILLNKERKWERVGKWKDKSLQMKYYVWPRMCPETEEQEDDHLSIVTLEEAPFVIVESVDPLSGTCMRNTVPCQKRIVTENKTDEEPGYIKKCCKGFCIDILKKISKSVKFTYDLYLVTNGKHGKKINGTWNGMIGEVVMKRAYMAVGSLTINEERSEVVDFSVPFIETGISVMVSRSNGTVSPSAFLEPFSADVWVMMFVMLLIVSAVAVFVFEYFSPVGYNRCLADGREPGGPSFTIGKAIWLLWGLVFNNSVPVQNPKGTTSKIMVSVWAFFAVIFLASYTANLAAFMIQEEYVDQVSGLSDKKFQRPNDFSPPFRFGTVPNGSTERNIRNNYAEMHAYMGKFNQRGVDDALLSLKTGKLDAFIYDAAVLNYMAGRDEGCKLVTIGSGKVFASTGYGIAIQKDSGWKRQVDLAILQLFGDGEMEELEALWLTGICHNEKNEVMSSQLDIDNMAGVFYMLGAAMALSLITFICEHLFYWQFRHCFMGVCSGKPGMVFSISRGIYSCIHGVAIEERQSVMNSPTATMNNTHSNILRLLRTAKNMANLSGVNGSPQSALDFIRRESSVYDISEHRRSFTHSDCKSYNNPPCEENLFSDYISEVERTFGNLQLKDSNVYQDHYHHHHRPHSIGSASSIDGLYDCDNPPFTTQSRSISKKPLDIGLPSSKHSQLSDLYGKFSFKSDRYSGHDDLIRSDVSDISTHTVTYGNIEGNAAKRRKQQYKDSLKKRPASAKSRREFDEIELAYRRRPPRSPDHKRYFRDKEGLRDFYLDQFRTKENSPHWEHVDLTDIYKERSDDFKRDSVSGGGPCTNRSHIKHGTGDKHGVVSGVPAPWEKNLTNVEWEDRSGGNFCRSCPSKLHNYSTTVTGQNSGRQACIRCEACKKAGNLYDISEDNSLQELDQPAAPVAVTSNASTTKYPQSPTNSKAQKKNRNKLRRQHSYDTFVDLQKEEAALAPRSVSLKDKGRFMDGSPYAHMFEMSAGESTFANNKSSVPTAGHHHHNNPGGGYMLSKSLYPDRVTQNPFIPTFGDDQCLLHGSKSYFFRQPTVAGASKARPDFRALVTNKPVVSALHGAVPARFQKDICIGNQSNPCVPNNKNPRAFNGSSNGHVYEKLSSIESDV

| SMILES | Response Recovered (%) |
| --- | --- |
| O=C(Cn1cnc2scc(-c3ccc(F)c(C(F)(F)F)c3)c2c1=O)N1CCC(F)C1 (centres unmarked) [Example 61] | 83% |
| O=C(Cn1cnc2scc(-c3ccc(C(F)(F)F)c(Cl)c3)c2c1=O)N1CCC(F)C1 (centres unmarked) [Example 62] | 62% |
| O=C(Cn1cnc2scc(-c3cnc(Cl)c(Cl)c3)c2c1=O)N1CCC(F)C1 (centres unmarked) [Example 63, 5-(5,6-dichloropyridin-3-yl)-3-[2-(3-fluoropyrrolidin-1-yl)-2-oxoethyl]-3H,4H-thieno[2,3-d]pyrimidin-4-one] | 10% |
| O=C(Cn1cnc2scc(-c3ccc(Cl)c(C(F)(F)F)c3)c2c1=O)N1CC[C@@H](F)C1 [Example 64, 5-[4-chloro-3-(trifluoromethyl)phenyl]-3-{2-[(3R)-3-fluoropyrrolidin-1-yl]-2-oxoethyl}-3H,4H-thieno[2,3-d]pyrimidin-4-one] | 117% |
| O=C(Cn1cnc2scc(-c3cnc(Cl)c(C(F)(F)F)c3)c2c1=O)N1CCC(F)C1 (centres unmarked) [Example 70, 5-[6-chloro-5-(trifluoromethyl)pyridin-3-yl]-3-[2-(3-fluoropyrrolidin-1-yl)-2-oxoethyl]-3H,4H-thieno[2,3-d]pyrimidin-4-one] | 22% |
| O=C(Cn1cnc2sc(-c3ccc(Cl)cc3)cc2c1=O)N1CCCC1 [Example 74, 6-(4-chlorophenyl)-3-(2-oxo-2-(pyrrolidin-1-yl)ethyl)thieno[2,3-d]pyrimidin-4(3H)-one] | 1% |
| O=C(Cn1cnc2sc(-c3ccc(Cl)cc3)cc2c1=O)N1CCCCC1 [Example 75, 6-(4-chlorophenyl)-3-[2-oxo-2-(piperidin-1-yl)ethyl]-3H,4H-thieno[2,3-d]pyrimidin-4-one] | 0% |
| O=C(Cn1cnc2sc(-c3ccc(Cl)cc3)cc2c1=O)NC1CC1 [Example 76, 2-[6-(4-chlorophenyl)-4-oxo-3H,4H-thieno[2,3-d]pyrimidin-3-yl]-N-cyclopropylacetamide] | 34% |
| O=C(Cn1cnc2sc(-c3ccc(Cl)cc3)cc2c1=O)N1CCOCC1 [Example 77, 6-(4-chlorophenyl)-3-[2-(morpholin-4-yl)-2-oxoethyl]-3H,4H-thieno[2,3-d]pyrimidin-4-one] | 18% |
| O=C(Cn1cnc2sc(-c3ccc(Cl)cc3)cc2c1=O)N1CCC(F)(F)CC1 [Example 78, 6-(4-chlorophenyl)-3-[2-(4,4-difluoropiperidin-1-yl)-2-oxoethyl]-3H,4H-thieno└2,3-d┘pyrimidin-4-one] | 13% |
| Cc1sc2ncn(CC(=O)N3CCCC3)c(=O)c2c1-c1ccc(Cl)cc1 [Example 79, 5-(4-Chloro-phenyl)-6-methyl-3-(2-oxo-2-pyrrolidin-1-yl-ethyl)-3H-thieno[2,3-d]pyrimidin-4-one] | 17% |
| Cc1sc2ncn(CC(=O)N3CCCC3C(F)(F)F)c(=O)c2c1-c1ccc(Cl)cc1 (centres unmarked) [Example 80, 5-(4-chlorophenyl)-6-methyl-3-{2-oxo-2-[2-(trifluoromethyl)pyrrolidin-1-yl]ethyl}-3H,4H-thieno[2,3-d]pyrimidin-4-one] | 10% |
| Cc1sc2ncn(CC(=O)N3CCCC3)c(=O)c2c1-c1ccc(F)c(C(F)(F)F)c1 [Example 81, 5-[4-fluoro-3-(trifluoromethyl)phenyl]-6-methyl-3-[2-oxo-2-(pyrrolidin-1-yl)ethyl]-3H,4H-thieno[2,3-d]pyrimidin-4-one] | 40% |
| Cc1sc2ncn(CC(=O)N3CCCC3)c(=O)c2c1-c1ccc(Cl)c(C(F)(F)F)c1 [Example 82, 5-[4-chloro-3-(trifluoromethyl)phenyl]-6-methyl-3-[2-oxo-2-(pyrrolidin-1-yl)ethyl]-3H,4H-thieno[2,3-d]pyrimidin-4-one] | 15% |
| Cc1sc2ncn(CC(=O)N3CCCC3)c(=O)c2c1-c1ccc(F)c(Cl)c1 [Example 83, 5-(3-chloro-4-fluorophenyl)-6-methyl-3-[2-oxo-2-(pyrrolidin-1-yl)ethyl]-3H,4H-thieno[2,3-d]pyrimidin-4-one] | 45% |
| Cc1sc2ncn(CC(=O)N3CCCC3)c(=O)c2c1-c1ccc(Cl)c(Cl)c1 [Example 84, 5-(3,4-dichlorophenyl)-6-methyl-3-[2-oxo-2-(pyrrolidin-1-yl)ethyl]-3H,4H-thieno[2,3-d]pyrimidin-4-one] | 60% |
| O=C(On1cnc2scc(-c3ccc(Cl)c(C(F)(F)F)c3)c2c1=O)N1CCCC1 [Example 85, 5-(4-chloro-3-(trifluoromethyl)phenyl)-4-oxothieno[2,3-d]pyrimidin-3(4H)-yl pyrrolidine-1-carboxylate] | 51% |
| O=C(On1cnc2scc(-c3ccc(F)c(Cl)c3)c2c1=O)N1CCCC1 [Example 86, 5-(3-chloro-4-fluorophenyl)-4-oxo-3H,4H-thieno[2,3-d]pyrimidin-3-yl pyrrolidine-1-carboxylate] | 48% |

Further lines, results first:

| Response Recovered (%) | SMILES |
| --- | --- |
| 87% | O=C(Cn1cnc2scc(-c3ccc(Cl)c(C(F)(F)F)c3)c2c1=O)N1CC[C@H](F)C1 [Example 65, 5-[4-chloro-3-(trifluoromethyl)phenyl]-3-{2-[(3S)-3-fluoropyrrolidin-1-yl]-2-oxoethyl}-3H,4H-thieno[2,3-d]pyrimidin-4-one] |
| 103% | O=C(Cn1cnc2scc(-c3ccc(Cl)c(C(F)(F)F)c3)c2c1=O)N1C[C@@H](F)[C@@H](F)C1 [Example 66, 5-[4-chloro-3-(trifluoromethyl)phenyl]-3-{2-[(3R,4S)-3,4-difluoropyrrolidin-1-yl]-2-oxoethyl}-3H,4H-thieno[2,3-d]pyrimidin-4-one] |
| 84% | O=C(Cn1cnc2scc(-c3ccc(Cl)c(Cl)c3)c2c1=O)N1C[C@@H](F)[C@@H](F)C1 [Example 67, 5-(3,4-dichlorophenyl)-3-{2-[(3R,4S)-3,4-difluoropyrrolidin-1-yl]-2-oxoethyl}-3H,4H-thieno[2,3-d]pyrimidin-4-one] |
| 71% | O=C(Cn1cnc2scc(-c3ccc(Cl)c(Cl)c3)c2c1=O)N1CC[C@@H](F)C1 [Example 68, 5-(3,4-dichlorophenyl)-3-{2-[(3R)-3-fluoropyrrolidin-1-yl]-2-oxoethyl}-3H,4H-thieno[2,3-d]pyrimidin-4-one] |
| 94% | O=C(Cn1cnc2scc(-c3ccc(Cl)c(Cl)c3)c2c1=O)N1CC[C@H](F)C1 [Example 69, 5-(3,4-dichlorophenyl)-3-{2-[(3S)-3-fluoropyrrolidin-1-yl]-2-oxoethyl}-3H,4H-thieno[2,3-d]pyrimidin-4-one] |
| 25% | O=C(Cn1cnc2scc(-c3cnc(Cl)c(C(F)(F)F)c3)c2c1=O)N1CC(F)C(F)C1 (centres unmarked) [Example 71, 5-[6-chloro-5-(trifluoromethyl)pyridin-3-yl]-3-[2-(3,4-difluoropyrrolidin-1-yl)-2-oxoethyl]-3H,4H-thieno[2,3-d]pyrimidin-4-one] |
| 15% | O=C(Cn1cnc2scc(-c3cnc(Cl)c(Cl)c3)c2c1=O)N1CC(F)C(F)C1 (centres unmarked) [Example 72, 5-(5,6-dichloropyridin-3-yl)-3-[2-(3,4-difluoropyrrolidin-1-yl)-2-oxoethyl]-3H,4H-thieno[2,3-d]pyrimidin-4-one] |
| 11% | O=C(Cn1cnc2scc(-c3cnc(F)c(Cl)c3)c2c1=O)N1CC(F)C(F)C1 (centres unmarked) [Example 73, 5-(5-chloro-6-fluoropyridin-3-yl)-3-[2-(3,4-difluoropyrrolidin-1-yl)-2-oxoethyl]-3H,4H-thieno[2,3-d]pyrimidin-4-one] |
